{"source": "ChEMBL document CHEMBL4373679", "about": "“Overcoming synthetic challenges in targeting coenzyme A biosynthesis with the antimicrobial natural product CJ-15,801” (Medchemcomm, 2019)", "format_in_all_cases": "functional, organism-based", "key": {"Plasmodium falciparum [1]": {"system": "Plasmodium falciparum", "experiment": "Antimalarial activity against Plasmodium falciparum infected in erythrocytes in presence of 1 uM pantothenic acid by SYBR safe-based fluorescence assay"}, "Plasmodium falciparum [2]": {"system": "Plasmodium falciparum", "experiment": "Antimalarial activity against Plasmodium falciparum infected in erythrocytes in presence of 100 uM pantothenic acid and TBA salt form by SYBR safe-based fluorescence assay"}, "Plasmodium falciparum [3]": {"system": "Plasmodium falciparum", "experiment": "Antimalarial activity against Plasmodium falciparum infected in erythrocytes in presence of 1 uM pantothenic acid and TBA salt form by SYBR safe-based fluorescence assay"}}, "data": [{"smiles": "CCCC[N+](CCCC)(CCCC)CCCC", "note": "[TETRABUTHYLAMMONIUM]", "values": [{"measurement": "IC50", "setting": "Plasmodium falciparum [1]", "result": 5, "unit": "µM"}]}, {"smiles": "CC(C)(CO)[C@@H](O)C(=O)N/C=C/C(=O)O", "values": [{"measurement": "IC50", "setting": "Plasmodium falciparum [2]", "result": 25, "unit": "µM"}, {"measurement": "IC50", "setting": "Plasmodium falciparum [1]", "result": 64, "unit": "µM"}, {"measurement": "IC50", "setting": "Plasmodium falciparum [3]", "result": 25, "unit": "µM"}]}]}
